Measurements published in patent US20070191262A1, “Cancer Therapy and Prevention Based on Modulation of Complement activity” (University of Iowa Research Foundation, priority 2005, published 2007).
Where two headings read alike, the source gives them in different places.

How the values were obtained:
[1] = multiphasic clearance from plasma; cited from earlier work
[2] = patients with creatinine clearance >35 mL per minute; cited from earlier work
[3] = cited from earlier work
[4] = test system: C3b deposition on B-cell surface; assay: C3b opsonization of target cells in the presence of rituximab and donor serum (flow cytometry); type: cell-based, human; conditions: serum from homozygous A donors
Source text: FIG. 2—Level of C3b opsonization of B-cell surface in the presence of rituximab and serum from individuals with known C1qA[276] genotype.
(§1) C1qA polymorphism correlates with the ability of complement to opsonize and kill target cells in the presence of therapeutic antibodies. The inventors collected and coded serum samples from 10 healthy donors previously genotyped for C1qA[276A/G] polymorphism. The sera were extensively analyzed for function of complement and ability to opsonize target cells by members of an outside collaborative research group blinded to the identity of the donors and the C1q genotype. The results from killing experiments are presented in summary in FIG. 1. The experiments were designed to determine the ability of the complement from human sera to lyse and thus limit the proliferation of Raji cells, a CD20 expressing B-cell lymphoma cell line, in the presence of rituximab, an anti-CD20 monoclonal with extensive application in clinical therapy of lymphoma. […] The inventors are currently in the process of collecting additional sera for testing. In a one-way ANOVA, p value is 0.086 at this point. Assuming future results will go with the trend observed, the ANOVA test will be in the 0.002 range if only 2 homozygous of each kind are added, and excluding the heterozygous. A better test for this type of data would be Dunn's multiple comparison test. […]

follicular lymphoma = assay: Single agent rituximab therapy of follicular lymphoma, outcome by C1qA[276], CD32 and CD16 polymorphism; type: in vivo, human
Protocol: A polymorphism in the C1qA component of complement correlates with prolonged complete remission following rituximab therapy of follicular lymphoma. The non-coding polymorphism at C1qA[276] was examined in 90 patients with follicular lymphoma who were treated with rituximab (single agent) to assess whether a correlation exists between this genetic polymorphism of the complement pathway and clinical effectiveness of rituximab. The presence of an A versus a G allele at the C1qA[276] locus was determined using restriction fragment length polymorphism analysis by investigators blinded to the clinical outcome of the patients. The molecular and clinical data was then analyzed according to C1qA polymorphism, including measurement of radiographic response and duration of response, using methods similar to those used to evaluate the correlation between polymorphisms in CD16/CD32 genes and clinical outcome.
However, prolonged remission was noted among those subjects that achieved remission (either partial or complete response) for individuals who were carriers of the A allele at the C1qA[276] locus (AA or AG) compared to homozygous GG subjects. The strongest correlation was found among those subjects that achieved a complete remission to single agent rituximab. […] A allele was an independent factor for good prognosis, while FcγRIIIa 158 phenylalanine carrier and FcγRIIa 131 arginine carrier indicated poor survival. Thus, the relative risk was 0.2 for C1qA[276] AA/AG versus GG after controlling for CD32 and CD16 polymorphisms. The relative risks were 4.8 for CD32 HR versus HH and 6.16 for CD32 RR versus HH after controlling for complement and CD16 polymorphisms. The relative risks were 4.57 for CD16 VF against VV and 3.69 for CD16 FF versus VV after controlling for complement and CD32 polymorphisms.

Raji cells = assay: Complement-mediated killing of Raji cells in the presence of rituximab and serum from genotyped donors; type: cell-based, human
Protocol: FIG. 1—Percentage of live Raji cells after 72 hours incubation in the presence of rituximab and serum from donors with known C1qA[276] genotype.
as §1

For `CC[C@]1(O)C[C@H]2CN(CCc3c([nH]c4ccccc34)[C@@](C(=O)OC)(c3cc4c(cc3OC)N(C=O)[C@H]3[C@@](O)(C(=O)OC)[C@H](OC(C)=O)[C@]5(CC)C=CCN6CC[C@]43[C@@H]65)C2)C1` [Vincristine], the terminal half-life [1] is given as “about 24 hr”.
For Bleomycin, the “serum or plasma terminal elimination half-life” value [2] is given as “approximately 115 min”, the tissue concentration ([3]; hematopoietic tissue / bone marrow) is given as “low concentrations” and the tissue concentration ([3]; mice, skin, lungs, kidneys, peritoneum, lymphatics) is given as “high concentrations”.
With “Rituximab: monoclonal antibody that targets CD20, which is found on more than 90% of non-Hodgkin's lymphomas” the “deposition of C3b molecules on the surface of target cells” value [4] was “least efficient”, the “difference in response rate based on C1qA polymorphisms” value (follicular lymphoma; 90 follicular lymphoma patients, single agent) was “No statistically significant difference” and the time to progression (follicular lymphoma; C1qA[276] AA/AG subjects who achieved complete remission) was 830 days. It also gave a relative risk (follicular lymphoma; C1qA[276] AA/AG versus GG, controlling for CD32 and CD16 polymorphisms) of 0.2, a time to progression (follicular lymphoma; C1qA[276] GG subjects who achieved complete remission) of 250 days and a relative risk (follicular lymphoma; CD16 FF versus VV, controlling for complement and CD32 polymorphisms) of 3.69. It also gave a relative risk (follicular lymphoma; CD16 VF against VV, controlling for complement and CD32 polymorphisms) of 4.57, a relative risk (follicular lymphoma; CD32 HR versus HH, controlling for complement and CD16 polymorphisms) of 4.8 and a relative risk (follicular lymphoma; CD32 RR versus HH, controlling for complement and CD16 polymorphisms) of 6.16. For the same compound, the “HR (time to progression)” value (follicular lymphoma; GG versus AA/AG, complete remission group, 95% CI=2.1-96.9) was 4.1, the “average lysis of Raji cells” value (Raji cells; heterozygous sera) was “moderate efficiency” and the “ability of serum complement to lyse Raji cells” value (Raji cells; serum of homozygous C1qA[276A] donors versus homozygous G, 72 hours, p<0.04) was “significant decrease”.
